Experimental data taken from US20260297081A1, “COMPOUNDS AND METHODS OF TREATING CANCERS” (Cullgen Inc., priority 2023, published 2026).

Target: CDK4 (Homo sapiens, UniProt P11802+Q16531)
Assay: CDK4 percentage degradation in Calu-1 cells (Table 6)
Assay type: cell-based
Parameters: Cells that express cyclin D1-3 and CDK4/6 proteins were treated with heterobifunctional compounds; endogenous in cells; host or cells: Calu-1
Settings: 16 hours; for inhibition at 0.04 µM: 40 nM; for inhibition at 0.2 µM: 200 nM
Procedure, shortened: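 Calu-1 cells exposed to heterobifunctional compounds at 40 nM or 200 nM for 16 h. Cyclin D1 and CDK4 levels measured by Western blot of RIPA lysates (BCA-normalised loading), bands quantified by densitometry and expressed as percentage degradation.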

CDK4, sequence (P11802 2-303 limits assumed): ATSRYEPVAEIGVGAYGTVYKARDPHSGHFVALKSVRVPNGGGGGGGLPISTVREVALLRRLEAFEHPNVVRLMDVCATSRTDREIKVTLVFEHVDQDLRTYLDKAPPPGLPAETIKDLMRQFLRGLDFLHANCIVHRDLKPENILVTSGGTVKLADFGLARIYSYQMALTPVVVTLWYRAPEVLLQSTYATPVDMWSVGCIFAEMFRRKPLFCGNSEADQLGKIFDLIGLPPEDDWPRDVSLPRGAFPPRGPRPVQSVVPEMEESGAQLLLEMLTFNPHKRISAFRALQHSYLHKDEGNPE
CDK4, sequence (P24385 whole entry partner): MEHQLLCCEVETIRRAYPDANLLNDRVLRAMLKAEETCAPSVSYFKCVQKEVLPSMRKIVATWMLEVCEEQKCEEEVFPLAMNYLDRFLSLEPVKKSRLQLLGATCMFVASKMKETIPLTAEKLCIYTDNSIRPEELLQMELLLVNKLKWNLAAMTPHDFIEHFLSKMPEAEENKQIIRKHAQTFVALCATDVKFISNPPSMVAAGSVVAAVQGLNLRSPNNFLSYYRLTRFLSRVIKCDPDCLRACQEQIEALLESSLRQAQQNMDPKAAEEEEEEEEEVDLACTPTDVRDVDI
CDK4, sequence (Q16531 2-1140 limits assumed): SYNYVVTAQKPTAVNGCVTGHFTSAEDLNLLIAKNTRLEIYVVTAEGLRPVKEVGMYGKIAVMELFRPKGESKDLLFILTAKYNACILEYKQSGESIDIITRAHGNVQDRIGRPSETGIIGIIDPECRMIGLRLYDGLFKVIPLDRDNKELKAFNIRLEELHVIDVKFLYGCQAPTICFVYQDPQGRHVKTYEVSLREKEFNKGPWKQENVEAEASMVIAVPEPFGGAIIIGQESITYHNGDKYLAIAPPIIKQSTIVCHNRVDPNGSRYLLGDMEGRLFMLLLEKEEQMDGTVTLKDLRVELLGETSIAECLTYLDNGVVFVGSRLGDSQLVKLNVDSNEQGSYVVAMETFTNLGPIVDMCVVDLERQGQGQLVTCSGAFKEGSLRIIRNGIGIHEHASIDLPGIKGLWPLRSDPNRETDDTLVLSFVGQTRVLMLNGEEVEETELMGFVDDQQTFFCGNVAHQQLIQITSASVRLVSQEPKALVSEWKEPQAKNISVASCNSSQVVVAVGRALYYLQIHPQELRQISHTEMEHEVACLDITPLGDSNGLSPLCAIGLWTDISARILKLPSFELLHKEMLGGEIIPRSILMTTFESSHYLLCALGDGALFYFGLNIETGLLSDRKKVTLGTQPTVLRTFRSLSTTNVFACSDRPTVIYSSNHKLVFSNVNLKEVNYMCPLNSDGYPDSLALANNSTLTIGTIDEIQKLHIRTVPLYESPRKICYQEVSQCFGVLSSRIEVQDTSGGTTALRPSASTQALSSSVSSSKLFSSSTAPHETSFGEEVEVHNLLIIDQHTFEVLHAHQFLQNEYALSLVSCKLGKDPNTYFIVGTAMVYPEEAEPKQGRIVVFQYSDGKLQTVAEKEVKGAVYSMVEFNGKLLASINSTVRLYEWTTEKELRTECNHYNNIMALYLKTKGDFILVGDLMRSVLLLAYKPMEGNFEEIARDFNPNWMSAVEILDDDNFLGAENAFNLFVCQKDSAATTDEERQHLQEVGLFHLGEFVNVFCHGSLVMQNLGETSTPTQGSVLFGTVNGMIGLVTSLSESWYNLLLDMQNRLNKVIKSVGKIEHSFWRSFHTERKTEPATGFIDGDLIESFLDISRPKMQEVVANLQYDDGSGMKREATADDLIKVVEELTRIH

Structure (SMILES) | inhibition at 0.04 µM [%] | inhibition at 0.2 µM [%]
[2H]C([2H])([2H])Nc1ccc(C(=O)Nc2cc(C)on2)c(NC2CN(C(=O)C(F)(F)CN3CCN(c4ccc(Nc5ncc6c(C)c(C(C)=O)c(=O)n(C7CCCC7)c6n5)nc4)CC3)C2)n1 [CPD-234, 2-((1-(3-(4-(6-((6-acetyl-8-cyclopentyl-5-methyl-7-oxo-7,8-dihydropyrido[2,3-d]pyrimidin-2-yl)amino)pyridin-3-yl)piperazin-1-yl)-2,2-difluoropropanoyl)azetidin-3-yl)amino)-6-((methyl-d3)amino)-N-(5-methylisoxazol-3methyl-yl)nicotinamide] | < 30 | < 30
CNc1ccc(C(=O)Nc2cn(C(C)C)c(C)n2)c(NC2CC3(CC(NC(=O)CN4CCN(c5ccc(Nc6ncc7c(C)c(C(C)=O)c(=O)n(C8CCCC8)c7n6)nc5)CC4)C3)C2)n1 (centres unmarked) [CPD-238, 2-((6-(2-(4-(6-((6-acetyl-8-cyclopentyl-5-methyl-7-oxo-7,8-dihydropyrido[2,3-d]pyrimidin-2-yl)amino)pyridin-3-yl)piperazin-1-yl)acetamido)spiro[3.3]heptan-2-yl)amino)-N-(1-isopropyl-2-methyl-1H-imidazol-4-yl)-6-(methylamino)nicotinamide] | < 30 | < 30
CNc1ccc(C(=O)Nc2ccon2)c(NC2CC3(CC(NC(=O)CN4CCN(c5ccc(Nc6ncc7c(C)c(C(C)=O)c(=O)n(C8CCCC8)c7n6)nc5)CC4)C3)C2)n1 (centres unmarked) [CPD-159, 2-((6-(2-(4-(6-((6-acetyl-8-cyclopentyl-5-methyl-7-oxo-7,8-dihydropyrido[2,3-d]pyrimidin-2-yl)amino)pyridin-3-yl)piperazin-1-yl)acetamido)spiro[3.3]heptan-2-yl)amino)-N-(isoxazol-3-yl)-6-(methylamino)nicotinamide] | < 30 | 50 to 80
CNc1ccc(C(=O)Nc2cccc(C)n2)c(NC2CC(NC(=O)CN3CCN(c4ccc(Nc5ncc6c(C)c(C(C)=O)c(=O)n(C7CCCC7)c6n5)nc4)CC3)C2)n1 (centres unmarked) [CPD-196, 2-((3-(2-(4-(6-((6-acetyl-8-cyclopentyl-5-methyl-7-oxo-7,8-dihydropyrido[2,3-d]pyrimidin-2-yl)amino)pyridin-3-yl)piperazin-1-yl)acetamido)cyclobutyl)amino)-6-(methylamino)-N-(6-methylpyridin-2-yl)nicotinamide] | < 30 | 30 to 50
CNc1ccc(C(=O)Nc2cccc(N)n2)c(NC2CC3(CC(NC(=O)CN4CCN(c5ccc(Nc6ncc7c(C)c(C(C)=O)c(=O)n(C8CCCC8)c7n6)nc5)CC4)C3)C2)n1 (centres unmarked) [CPD-180, 2-((6-(2-(4-(6-((6-acetyl-8-cyclopentyl-5-methyl-7-oxo-7,8-dihydropyrido[2,3-d]pyrimidin-2-yl)amino)pyridin-3-yl)piperazin-1-yl)acetamido)spiro[3.3]heptan-2-yl)amino)-N-(6-aminopyridin-2-yl)-6-(methylamino)nicotinamide] | < 30 | 30 to 50
CNc1ccc(C(=O)Nc2cc(C)n(C)n2)c(NC2CC(NC(=O)CN3CCN(c4ccc(Nc5ncc6c(C)c(C(C)=O)c(=O)n(C7CCCC7)c6n5)nc4)CC3)C2)n1 (centres unmarked) [CPD-197, 2-((3-(2-(4-(6-((6-acetyl-8-cyclopentyl-5-methyl-7-oxo-7,8-dihydropyrido[2,3-d]pyrimidin-2-yl)amino)pyridin-3-yl)piperazin-1-yl)acetamido)cyclobutyl)amino)-N-(1,5-dimethyl-1H-pyrazol-3-yl)-6-(methylamino)nicotinamide] | < 30 | 30 to 50
CNc1ccc(C(=O)Nc2cccc(C3CC3)n2)c(NC2CC3(CC(NC(=O)CN4CCN(c5ccc(Nc6ncc7c(C)c(C(C)=O)c(=O)n(C8CCCC8)c7n6)nc5)CC4)C3)C2)n1 (centres unmarked) [CPD-72, 2-((6-(2-(4-(6-((6-Acetyl-8-cyclopentyl-5-methyl-7-oxo-7,8-dihydropyrido[2,3-d]pyrimidin-2-yl)amino)pyridin-3-yl)piperazin-1-yl)acetamido)spiro[3.3]heptan-2-yl)amino)-N-(6-cyclopropylpyridin-2-yl)-6-(methylamino)nicotinamide] | 50 to 80 | > 80
CC(=O)c1c(C)c2cnc(Nc3ccc(N4CCN(CC(=O)NC5CC6(C5)CC(Nc5nc(C)ccc5C(=O)Nc5cn(C)c(C7CC7)n5)C6)CC4)cn3)nc2n(C2CCCC2)c1=O (centres unmarked) [CPD-207, 2-((6-(2-(4-(6-((6-acetyl-8-cyclopentyl-5-methyl-7-oxo-7,8-dihydropyrido[2,3-d]pyrimidin-2-yl)amino)pyridin-3-yl)piperazin-1-yl)acetamido)spiro[3.3]heptan-2-yl)amino)-N-(2-cyclopropyl-1-methyl-1H-imidazol-4-yl)-6-methylnicotinamide] | 30 to 50 | 50 to 80
CNc1ccc(C(=O)Nc2cn(C)cn2)c(NC2CC3(CC(NC(=O)CN4CCN(c5ccc(Nc6ncc7c(C)c(C(C)=O)c(=O)n(C8CCCC8)c7n6)nc5)CC4)C3)C2)n1 (centres unmarked) [CPD-152, 2-((6-(2-(4-(6-((6-acetyl-8-cyclopentyl-5-methyl-7-oxo-7,8-dihydropyrido[2,3-d]pyrimidin-2-yl)amino)pyridin-3-yl)piperazin-1-yl)acetamido)spiro[3.3]heptan-2-yl)amino)-N-(1-methyl-1H-imidazol-4-yl)-6-(methylamino)nicotinamide] | 30 to 50 | 50 to 80
CNc1ccc(C(=O)Nc2ccc(N(C)C)c(C3CC3)n2)c(NC2CC3(CC(NC(=O)CN4CCN(c5ccc(Nc6ncc7c(C)c(C(C)=O)c(=O)n(C8CCCC8)c7n6)nc5)CC4)C3)C2)n1 (centres unmarked) [CPD-177, 2-((6-(2-(4-(6-((6-acetyl-8-cyclopentyl-5-methyl-7-oxo-7,8-dihydropyrido[2,3-d]pyrimidin-2-yl)amino)pyridin-3-yl)piperazin-1-yl)acetamido)spiro[3.3]heptan-2-yl)amino)-N-(6-cyclopropyl-5-(dimethylamino)pyridin-2-yl)-6-(methylamino)nicotinamide] | < 30 | 50 to 80
CNc1cccc(NC(=O)c2ccc(NC)nc2NC2CC3(CC(NC(=O)CN4CCN(c5ccc(Nc6ncc7c(C)c(C(C)=O)c(=O)n(C8CCCC8)c7n6)nc5)CC4)C3)C2)n1 (centres unmarked) [CPD-181, 2-((6-(2-(4-(6-((6-acetyl-8-cyclopentyl-5-methyl-7-oxo-7,8-dihydropyrido[2,3-d]pyrimidin-2-yl)amino)pyridin-3-yl)piperazin-1-yl)acetamido)spiro[3.3]heptan-2-yl)amino)-6-(methylamino)-N-(6-(methylamino)pyridin-2-yl)nicotinamide] | 30 to 50 | 50 to 80
CNc1ccc(C(=O)Nc2ccc(N(C)C)nn2)c(N[C@H]2CC[C@H](CNC(=O)CN3CCN(c4ccc(Nc5ncc6c(C)c(C(C)=O)c(=O)n(C7CCCC7)c6n5)nc4)CC3)CC2)n1 [CPD-43, 2-((trans-4-((2-(4-(6-((6-Acetyl-8-cyclopentyl-5-methyl-7-oxo-7,8-dihydropyrido[2,3-d]pyrimidin-2-yl)amino)pyridin-3-yl)piperazin-1-yl)acetamido)methyl)cyclohexyl)amino)-N-(6-(dimethylamino)pyridazin-3-yl)-6-(methylamino)nicotinamide] | < 30 | 50 to 80
CNc1ccc(C(=O)Nc2cccc(C(F)F)n2)c(NC2CC3(CC(NC(=O)CN4CCN(c5ccc(Nc6ncc7c(C)c(C(C)=O)c(=O)n(C8CCCC8)c7n6)nc5)CC4)C3)C2)n1 (centres unmarked) [CPD-184, 2-((6-(2-(4-(6-((6-acetyl-8-cyclopentyl-5-methyl-7-oxo-7,8-dihydropyrido[2,3-d]pyrimidin-2-yl)amino)pyridin-3-yl)piperazin-1-yl)acetamido)spiro[3.3]heptan-2-yl)amino)-N-(6-(difluoromethyl)pyridin-2-yl)-6-(methylamino)nicotinamide] | 50 to 80 | 50 to 80
CNc1ccc(C(=O)Nc2ccc(N(C)C)nn2)c(NC2CC3(CC(NCCN4CCN(c5ccc(Nc6ncc7c(C)c(C(C)=O)c(=O)n(C8CCCC8)c7n6)nc5)CC4)C3)C2)n1 (centres unmarked) [CPD-96, 2-((6-((2-(4-(6-((6-Acetyl-8-cyclopentyl-5-methyl-7-oxo-7,8-dihydropyrido[2,3-d]pyrimidin-2-yl)amino)pyridin-3-yl)piperazin-1-yl)ethyl)amino)spiro[3.3]heptan-2-yl)amino)-N-(6-(dimethylamino)pyridazin-3-yl)-6-(methylamino)nicotinamide] | < 30 | < 30
CNc1ccc(C(=O)Nc2ccn(C)c2)c(NC2CC3(CC(NC(=O)CN4CCN(c5ccc(Nc6ncc7c(C)c(C(C)=O)c(=O)n(C8CCCC8)c7n6)nc5)CC4)C3)C2)n1 (centres unmarked) [CPD-183, 2-((6-(2-(4-(6-((6-acetyl-8-cyclopentyl-5-methyl-7-oxo-7,8-dihydropyrido[2,3-d]pyrimidin-2-yl)amino)pyridin-3-yl)piperazin-1-yl)acetamido)spiro[3.3]heptan-2-yl)amino)-N-(1-methyl-1H-pyrrol-3-yl)-6-(methylamino)nicotinamide] | 50 to 80 | 50 to 80
CNc1ccc(C(=O)Nc2ccc3c(n2)CCC3)c(NCCCCCNC(=O)CN2CCN(c3ccc(Nc4ncc5c(C)c(C(C)=O)c(=O)n(C6CCCC6)c5n4)nc3)CC2)n1 [CPD-40, 2-((5-(2-(4-(6-((6-Acetyl-8-cyclopentyl-5-methyl-7-oxo-7,8-dihydropyrido[2,3-d]pyrimidin-2-yl)amino)pyridin-3-yl)piperazin-1-yl)acetamido)pentyl)amino)-N-(6,7-dihydro-5H-cyclopenta[b]pyridin-2-yl)-6-(methylamino)nicotinamide] | 50 to 80 | 50 to 80
